Results: patent US9119842B2, “Therapeutic meso-biliverdin IXα compositions and associated methods” (Utah State University, priority 2012, dated 2015)

How the values were obtained:
[1] = tested on: pancreata / islet cells of donor rats; assay: Islet cell yields after treatment of donor pancreata; type: in vivo, rat (Lewis); details: for Islet yield: P<0.05 vs control; for Islet yield at 100 μM relative to 10 μM: 100 μM through the pancreatic duct
Protocol: MBV and BV IXα (obtained from Frontier Scientific, Inc., Logan Utah) (both at 1, 10, or 100 μM) were administered to IVC-dissected animals through the pancreatic duct at 37° C. Control animals received no treatment. Pancreata were removed from donor rats (Lewis, BW>300 g), incubated with University of Wisconsin solution and preserved using the two-layer method. See Ito et al., Improvement of canine islet yield by donor pancreas infusion with a p38MAPK inhibitor, Transplantation 86(2): 321-329 (2008). After 20 to 22 hours, islet cells were isolated using the 2-step digestion method after distention with collagenase and then purified by discontinuous Ficoll gradient centrifugation in a COBE 2991 cell processor. See Matsumoto et al., Improvement of pancreatic islet cell isolation for transplantation, Proc. (Bayl. Univ. Med. Cent.) 20(4): 357-362 (2007). Islet cells were counted microscopically and the numbers converted to IEQ (number of islets equivalent to 150 um in diameter.

[2] = molecular target: T1, recombinant human liver BVR (Homo sapiens, UniProt P53004); assay: BVR enzyme assay (Biliverdin Reduction Kit); type: biochemical; details: 10-fold dilution of 100 μg mL^−1, enzyme and NADPH, spectrophotometric 300-800 nm, up to 360 minutes
T1 construct: purchased Sigma-Aldrich (St. Louis, Mo.) CS1100; host or cells: Escherichia coli
T1 sequence (P53004 3-296): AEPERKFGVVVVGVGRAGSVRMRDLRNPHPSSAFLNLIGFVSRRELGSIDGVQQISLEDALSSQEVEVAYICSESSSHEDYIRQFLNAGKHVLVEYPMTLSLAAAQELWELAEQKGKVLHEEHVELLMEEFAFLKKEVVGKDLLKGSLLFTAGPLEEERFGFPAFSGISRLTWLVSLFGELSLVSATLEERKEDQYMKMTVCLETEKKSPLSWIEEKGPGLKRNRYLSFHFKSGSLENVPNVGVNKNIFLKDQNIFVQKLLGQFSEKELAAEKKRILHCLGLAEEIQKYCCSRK
Protocol: The Sigma-Aldrich (St. Louis, Mo.) Biliverdin Reduction Kit (catalog #CS1100) and method was used to determine biliverdin reductase (“BVR”) activities with MBV, BV IXα, or phycocyanobilin as substrates. The kit-supplied enzyme was human liver BVR expressed in a recombinant Escherichia coli strain. Before use, MBV, BV IXα, or phycocyanobilin, each at 100 μg mL^−1 in methanol, were diluted 10-fold in the kit-supplied assay buffer, mixed with enzyme and NADPH, and conversion to mesobilirubin IXα, bilirubin IXα, or phycocyanobilirubin was measured spectrophotometrically between 300 and 800 nm for up to 360 minutes.

[3] = tested on: transplanted islet cells in recipient rats; assay: Treatment of donor pancreata followed by islet cell autotransplantation; type: in vivo, rat (Lewis)
Protocol: Pancreata removed from donor rats (Lewis, BW>300 g) were infused with University of Wisconsin solution containing MBV or BV IXα at 1, 10, or 100 μM through the pancreatic duct and preserved using the 2-layer method in Hank's balanced salt solution containing 5% autologous serum as described in Example 5. After 20 to 22 hours, islets were isolated and 3000 IEQ/kg were autotransplanted by infusion into the portal vein of the corresponding rat.

[4] = tested on: HRT-18 colon cancer cells; assay: HRT-18 colon cancer cell proliferation in vitro; type: cell-based; details: 1, 10 and 100 μM vs PBS control; example in present tense
Protocol: (§1) HRT-18 cells are seeded in 6-well plates in a concentration of 25×10^4 cells per well. After 24 hours, incubation, cells are treated with MBV IXα (1, 10, and 100 μM) or phosphate buffered saline (PBS) as a control. Cells are washed, detached with trypsin and resolved in 1 mL of growth media. 100 μL of […] are then analyzed for cell number, viability and cell size. In a xenograft colonic tumor model (see Ollinger et al., Bilirubin Inhibits Tumor Cell Growth via Activation of ERK, Cell Cycle 6:3078-3085 (2007)), 2.5×10^6 HRT 18 colon cancer cells are injected subcutaneously into the lower flank of BALB/c nude mice. At 14 days, MBV treatment is begun by injection of 1, 10 and 100 mg/kg body weight or PBS (controls) twice daily intraperitoneally and tumor diameters are measured daily using a caliper.

[5] = tested on: HRT 18 colon cancer cells xenograft; assay: Xenograft colonic tumor model; type: in vivo, BALB/c nude mice; details: 1, 10 and 100 mg/kg twice daily intraperitoneally vs PBS; example in present tense
Protocol: as §1

db/db and obese mice = assay: Glucose tolerance in type 2 diabetes, db/db and obese mice; type: in vivo; details: example in present tense
Protocol: MBV (2, 20 and 100 mg kg^−1 daily) is orally administered to 5-week-old db/db and obese mice for 4 weeks. Control mice are given the same feed without added MBV. After 4 weeks, glucose tolerance and insulin tolerance tests are performed. See Ikeda et al., Biliverdin protects against the deterioration of glucose tolerance in db/db mice, Diabetologia 54:2183-2191 (2011). Insulin content is evaluated by immunostaining and ELISA. Oxidative stress markers (8-hydroxy-2′-deoxyguansosine and dihydroethidium staining) and expression of […] are evaluated in isolated islets.

[6] = tested on: Rat thoracic aortic vascular smooth muscle (A7r5) cells; assay: Suppression of angiotensin II-induced inflammation in A7r5 cells (superoxide anion, NADH/NADPH oxidase); type: cell-based; details: angiotensin II-treated A7r5 cells; example in present tense
Protocol: Rat thoracic aortic vascular smooth muscle (A7r5) cells cultured in Dulbecco's modified Eagle's medium supplemented with 10% fetal calf serum and 2 mM glutamine are exposed to various concentrations of angiotensin II and MBV for various lengths of time before harvesting. The cells are scraped into balanced salt solution, washed twice by centrifugation, and finally suspended at a density of 2×10^6 cells per mL in the same solution containing 10 mM glucose and 1 mg per mL bovine serum albumin. Superoxide anion levels (of suspensions with 9×10^5 cells) are measured with a luminometer and a commercial luminogen-based detection kit (LumiMax, Agilent Technologies. Inc.).
Angiotensin II and MBV-treated cells suspended in phosphate-buffered saline (with protease inhibitors) are disrupted at ice temperature using a Dounce homogenizer. The cell extracts are fractionated into microsomal membrane and cytosol fractions by standard differential centrifugation procedures. Microsomes, containing plasma and mitochondrial membranes, are recovered as pellets after centrifugation at 29,100 g for 20 min at 4° C. NADH/NADPH oxidase activities of the microsomal fractions are measured with a luminometer and a commercial luminogen-based kit (LumiMax, Agilent Technologies. Inc.).

[7] = 1 μM through the pancreatic duct
[8] = 10 μM through the pancreatic duct
[9] = infusion of pancreata through the duct before preservation

Row | Molecule | Increase of islet yield over non-treated controls ([1]; 1 μM) [fold] | Islet yield [1, 7] [IEQ/g] | Increase of islet yield over non-treated controls ([1]; 10 μM) [fold] | Islet yield [1, 8] [IEQ/g] | Islet yield at 100 μM relative to 10 μM [1] | BVR activity with the compound as substrate (conversion to reduced product) [2] | Islet cell yields (IEQ values) assessed by laser scanning cytometry ([3]; MBV-treated donor pancreata vs untreated control pancreata) | Tumor necrosis factor α expression (real-time RT-PCR) ([3]; MBV-treated group vs controls) | Plasma C peptide levels after glucagon challenge ([3]; animals receiving MBV-treated islets vs islets from untreated control pancreata) | Adverse effect on islet function [3, 9] | Islet cell apoptosis [3, 9] | Glycemia of recipient rats ([3]; rats transplanted with MBV-treated islets vs untreated islets) | HRT-18 colonic cell proliferation in vitro [4] | Xenograft tumor formation in vivo [5] | Development of hyperglycemia and glucose intolerance (db/db and obese mice; 2, 20 and 100 mg kg^−1 daily orally, 4 weeks) | Levels of oxidative stress markers and NADPH oxidase activities (db/db and obese mice; oral feeding 4 weeks, compared to controls) | Apoptosis and Bax expression in islets from db/db mice (db/db and obese mice; oral feeding 4 weeks) | Insulin levels and Pdxl expression (db/db and obese mice; oral feeding 4 weeks) | Angiotensin II-induced inflammatory processes (NADH/NADPH oxidase activation, superoxide anion production) [6]
1 | C=CC1=C(C)/C(=C\c2[nH]c(/C=C3N=C(/C=C4/NC(=O)C(C)=C4C=C)C(C)=C/3CCC(=O)O)c(CCC(=O)O)c2C)NC1=O [BV IXα, Biliverdin (“BV”) IXα, reference compound] | 1.04 | 1328±358 | 1.24 | 1616±451 | did not increase islet yields beyond those with 10 μM concentration |  |  |  |  |  |  |  |  |  |  |  |  |  | 
2 | meso-biliverdin IXα [MBV] | 1.87 | 1599±475 | 1.54 | 1318±804 | did not increase islet yields beyond those with 10 μM concentration | kinetics that resembled those for BV IXα conversion to bilirubin IXα | higher | significantly lower | higher | no adverse effect on islet function | prevented islet cell apoptosis | more euglycemic | reduces | reduces | at least partially prevents | lower and normal compared to those of controls | decreases | increases | suppresses these inflammatory processes
3 | C/C=C1/C(=C\c2[nH]c(/C=C3N=C(/C=C4/NC(=O)C(CC)=C4C)C(C)=C/3CCC(=O)O)c(CCC(=O)O)c2C)NC(=O)C1C (stereo not shown) [phycocyanobilin, reference compound] |  |  |  |  |  | poor and relatively inactive catalytic substrate |  |  |  |  |  |  |  |  |  |  |  |  | 
